Measurements published in the supplement of paper PMC13380429.

Key:
Conditions in all cases: 72 h
Vero E6 [1] = test: drug sensitivity score (DSS) for viability; higher = more toxic; extreme values may be limits of the assay
U2OS [2] = test: as above
Caco-2 [3] = test: as above
Calu-3 [4] = test: as above
HepG2 [5] = test: as above
Vero E6 [6] = test: cell viability relative to DMSO; higher = less toxic
U2OS [7] = test: as above
Caco-2 [8] = test: as above
Calu-3 [9] = test: as above
HepG2 [10] = test: as above
Vero E6 [11] = test: relative viability EC50 (midpoint between 100% and the lowest measured viability); higher = less toxic
U2OS [12] = test: as above
Caco-2 [13] = test: as above
Calu-3 [14] = test: as above
HepG2 [15] = test: as above

NC(=O)c1ncn([C@@H]2O[C@H](CO)[C@@H](O)[C@H]2O)c1O [mizoribine]
drug sensitivity score (Vero E6 [1]): 0 | drug sensitivity score (U2OS [2]): 0 | drug sensitivity score (Caco-2 [3]): 0 | drug sensitivity score (Calu-3 [4]): 0 | drug sensitivity score (HepG2 [5]): 0 | cell viability (Vero E6 [6]; 1 nM): 101% | cell viability (Vero E6 [6]; 10 nM): 103% | cell viability (Vero E6 [6]; 100 nM): 99.1% | cell viability (Vero E6 [6]; 1000 nM): 97.8% | cell viability (Vero E6 [6]; 10000 nM): 101% | cell viability (U2OS [7]; 1 nM): 101% | cell viability (U2OS [7]; 10 nM): 103% | cell viability (U2OS [7]; 100 nM): 99.6% | cell viability (U2OS [7]; 1000 nM): 96.3% | cell viability (U2OS [7]; 10000 nM): 99.1% | cell viability (Caco-2 [8]; 1 nM): 93.8% | cell viability (Caco-2 [8]; 10 nM): 97.7% | cell viability (Caco-2 [8]; 100 nM): 94.7% | cell viability (Caco-2 [8]; 1000 nM): 97.1% | cell viability (Caco-2 [8]; 10000 nM): 97.6% | cell viability (Calu-3 [9]; 1 nM): 104% | cell viability (Calu-3 [9]; 10 nM): 101% | cell viability (Calu-3 [9]; 100 nM): 95.3% | cell viability (Calu-3 [9]; 1000 nM): 102% | cell viability (Calu-3 [9]; 10000 nM): 88.4% | cell viability (HepG2 [10]; 1 nM): 112% | cell viability (HepG2 [10]; 10 nM): 100% | cell viability (HepG2 [10]; 100 nM): 110% | cell viability (HepG2 [10]; 1000 nM): 96.2% | cell viability (HepG2 [10]; 10000 nM): 106% | relative viability EC50 (Vero E6 [11]): > 10 µM | relative viability EC50 (U2OS [12]): > 10 µM | relative viability EC50 (Caco-2 [13]): > 10 µM | relative viability EC50 (Calu-3 [14]): > 10 µM | relative viability EC50 (HepG2 [15]): > 10 µM

CCOc1cc(N)c(Cl)cc1C(=O)NCC1CN(Cc2ccc(F)cc2)CCO1 (stereo not given) [mosapride]
drug sensitivity score (Vero E6 [1]): 0 | drug sensitivity score (U2OS [2]): 0 | drug sensitivity score (Caco-2 [3]): 0 | drug sensitivity score (Calu-3 [4]): 0 | drug sensitivity score (HepG2 [5]): 0 | cell viability (Vero E6 [6]; 1 nM): 99.1% | cell viability (Vero E6 [6]; 10 nM): 102% | cell viability (Vero E6 [6]; 100 nM): 101% | cell viability (Vero E6 [6]; 1000 nM): 94.5% | cell viability (Vero E6 [6]; 10000 nM): 98.3% | cell viability (U2OS [7]; 1 nM): 101% | cell viability (U2OS [7]; 10 nM): 95.9% | cell viability (U2OS [7]; 100 nM): 99% | cell viability (U2OS [7]; 1000 nM): 95.9% | cell viability (U2OS [7]; 10000 nM): 103% | cell viability (Caco-2 [8]; 1 nM): 89.6% | cell viability (Caco-2 [8]; 10 nM): 93.4% | cell viability (Caco-2 [8]; 100 nM): 99.9% | cell viability (Caco-2 [8]; 1000 nM): 96.1% | cell viability (Caco-2 [8]; 10000 nM): 100% | cell viability (Calu-3 [9]; 1 nM): 95.7% | cell viability (Calu-3 [9]; 10 nM): 87.4% | cell viability (Calu-3 [9]; 100 nM): 105% | cell viability (Calu-3 [9]; 1000 nM): 97.6% | cell viability (Calu-3 [9]; 10000 nM): 106% | cell viability (HepG2 [10]; 1 nM): 95.4% | cell viability (HepG2 [10]; 10 nM): 99.7% | cell viability (HepG2 [10]; 100 nM): 98.8% | cell viability (HepG2 [10]; 1000 nM): 98.3% | cell viability (HepG2 [10]; 10000 nM): 101% | relative viability EC50 (Vero E6 [11]): > 10 µM | relative viability EC50 (U2OS [12]): > 10 µM | relative viability EC50 (Caco-2 [13]): > 10 µM | relative viability EC50 (Calu-3 [14]): > 10 µM | relative viability EC50 (HepG2 [15]): > 10 µM

N=C(N)Nc1ccc(C(=O)Oc2ccc3cc(C(=N)N)ccc3c2)cc1 [nafamostat]
drug sensitivity score (Vero E6 [1]): 0 | drug sensitivity score (U2OS [2]): 0 | drug sensitivity score (Caco-2 [3]): 0 | drug sensitivity score (Calu-3 [4]): 0 | drug sensitivity score (HepG2 [5]): 0.5 | cell viability (Vero E6 [6]; 1 nM): 99.7% | cell viability (Vero E6 [6]; 10 nM): 103% | cell viability (Vero E6 [6]; 100 nM): 104% | cell viability (Vero E6 [6]; 1000 nM): 102% | cell viability (Vero E6 [6]; 10000 nM): 97% | cell viability (U2OS [7]; 1 nM): 102% | cell viability (U2OS [7]; 10 nM): 99.4% | cell viability (U2OS [7]; 100 nM): 102% | cell viability (U2OS [7]; 1000 nM): 97.6% | cell viability (U2OS [7]; 10000 nM): 102% | cell viability (Caco-2 [8]; 1 nM): 101% | cell viability (Caco-2 [8]; 10 nM): 100% | cell viability (Caco-2 [8]; 100 nM): 98.8% | cell viability (Caco-2 [8]; 1000 nM): 92.4% | cell viability (Caco-2 [8]; 10000 nM): 107% | cell viability (Calu-3 [9]; 1 nM): 98.3% | cell viability (Calu-3 [9]; 10 nM): 103% | cell viability (Calu-3 [9]; 100 nM): 107% | cell viability (Calu-3 [9]; 1000 nM): 103% | cell viability (Calu-3 [9]; 10000 nM): 99.4% | cell viability (HepG2 [10]; 1 nM): 96.5% | cell viability (HepG2 [10]; 10 nM): 108% | cell viability (HepG2 [10]; 100 nM): 104% | cell viability (HepG2 [10]; 1000 nM): 108% | cell viability (HepG2 [10]; 10000 nM): 77.1% | relative viability EC50 (Vero E6 [11]): > 10 µM | relative viability EC50 (U2OS [12]): > 10 µM | relative viability EC50 (Caco-2 [13]): > 10 µM | relative viability EC50 (Calu-3 [14]): > 10 µM | relative viability EC50 (HepG2 [15]): > 10 µM
